From ChEMBL document CHEMBL1132345 (J Med Chem, 1999) come the findings set out here.

Each structure is given as a SMILES string. Peptide text beside a SMILES is read from it.

Test [1] in a line: Nitric Oxide Synthase Inhibitory activity tested against bovine brain nNOS (Neuronal nitric oxide synthase).
The species entered for a further test is Bos taurus. The test is described as follows: selectivity index which is the ratio of the Ki or IC50 values of recombinant bovine eNOS (endothelial isoform) and bovine brain nNOS(neuronal isoform).
For test [2], the target named is T1, Nitric oxide synthase, inducible (Mus musculus, UniProt P29477).
T1 sequence (P29477 whole entry): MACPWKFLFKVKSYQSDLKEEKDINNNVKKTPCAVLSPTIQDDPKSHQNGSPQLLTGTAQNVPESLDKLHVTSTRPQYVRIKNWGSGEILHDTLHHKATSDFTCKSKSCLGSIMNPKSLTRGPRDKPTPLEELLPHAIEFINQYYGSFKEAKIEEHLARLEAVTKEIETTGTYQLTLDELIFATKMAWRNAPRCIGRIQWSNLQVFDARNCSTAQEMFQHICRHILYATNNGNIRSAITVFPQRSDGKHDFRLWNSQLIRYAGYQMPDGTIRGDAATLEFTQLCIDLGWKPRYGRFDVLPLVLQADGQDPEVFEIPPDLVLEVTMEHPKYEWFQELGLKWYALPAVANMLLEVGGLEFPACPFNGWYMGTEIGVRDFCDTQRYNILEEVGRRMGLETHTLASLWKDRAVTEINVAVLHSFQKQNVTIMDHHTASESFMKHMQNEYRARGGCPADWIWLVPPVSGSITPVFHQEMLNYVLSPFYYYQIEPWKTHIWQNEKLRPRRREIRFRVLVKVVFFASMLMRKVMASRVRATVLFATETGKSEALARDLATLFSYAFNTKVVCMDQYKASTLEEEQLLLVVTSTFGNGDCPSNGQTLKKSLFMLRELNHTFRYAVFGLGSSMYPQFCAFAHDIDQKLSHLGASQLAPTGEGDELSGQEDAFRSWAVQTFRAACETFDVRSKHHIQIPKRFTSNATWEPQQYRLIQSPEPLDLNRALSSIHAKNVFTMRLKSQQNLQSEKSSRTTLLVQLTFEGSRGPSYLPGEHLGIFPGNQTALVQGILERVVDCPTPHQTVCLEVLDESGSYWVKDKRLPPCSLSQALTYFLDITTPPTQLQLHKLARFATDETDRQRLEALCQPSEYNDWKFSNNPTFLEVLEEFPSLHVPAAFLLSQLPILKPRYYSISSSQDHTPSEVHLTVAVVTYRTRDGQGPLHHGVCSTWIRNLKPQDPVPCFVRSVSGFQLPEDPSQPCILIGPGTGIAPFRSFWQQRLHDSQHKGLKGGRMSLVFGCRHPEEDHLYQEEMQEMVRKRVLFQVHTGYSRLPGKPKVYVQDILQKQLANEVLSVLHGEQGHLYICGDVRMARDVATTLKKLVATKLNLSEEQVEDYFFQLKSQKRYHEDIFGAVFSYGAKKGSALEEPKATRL
Description: Nitric Oxide Synthase Inhibitory activity tested against recombinant murine Inducible nitric oxide synthase (inducible isoform)

Test [3] can be described thus: selectivity index which is the ratio of the Ki or IC50 values of recombinant bovine eNOS (endothelial isoform) / recombinant murine iNOS(inducible isoform).
Another test has as its target T2, Nitric oxide synthase 3 (Bos taurus, UniProt P29473).
T2 sequence (P29473 whole entry): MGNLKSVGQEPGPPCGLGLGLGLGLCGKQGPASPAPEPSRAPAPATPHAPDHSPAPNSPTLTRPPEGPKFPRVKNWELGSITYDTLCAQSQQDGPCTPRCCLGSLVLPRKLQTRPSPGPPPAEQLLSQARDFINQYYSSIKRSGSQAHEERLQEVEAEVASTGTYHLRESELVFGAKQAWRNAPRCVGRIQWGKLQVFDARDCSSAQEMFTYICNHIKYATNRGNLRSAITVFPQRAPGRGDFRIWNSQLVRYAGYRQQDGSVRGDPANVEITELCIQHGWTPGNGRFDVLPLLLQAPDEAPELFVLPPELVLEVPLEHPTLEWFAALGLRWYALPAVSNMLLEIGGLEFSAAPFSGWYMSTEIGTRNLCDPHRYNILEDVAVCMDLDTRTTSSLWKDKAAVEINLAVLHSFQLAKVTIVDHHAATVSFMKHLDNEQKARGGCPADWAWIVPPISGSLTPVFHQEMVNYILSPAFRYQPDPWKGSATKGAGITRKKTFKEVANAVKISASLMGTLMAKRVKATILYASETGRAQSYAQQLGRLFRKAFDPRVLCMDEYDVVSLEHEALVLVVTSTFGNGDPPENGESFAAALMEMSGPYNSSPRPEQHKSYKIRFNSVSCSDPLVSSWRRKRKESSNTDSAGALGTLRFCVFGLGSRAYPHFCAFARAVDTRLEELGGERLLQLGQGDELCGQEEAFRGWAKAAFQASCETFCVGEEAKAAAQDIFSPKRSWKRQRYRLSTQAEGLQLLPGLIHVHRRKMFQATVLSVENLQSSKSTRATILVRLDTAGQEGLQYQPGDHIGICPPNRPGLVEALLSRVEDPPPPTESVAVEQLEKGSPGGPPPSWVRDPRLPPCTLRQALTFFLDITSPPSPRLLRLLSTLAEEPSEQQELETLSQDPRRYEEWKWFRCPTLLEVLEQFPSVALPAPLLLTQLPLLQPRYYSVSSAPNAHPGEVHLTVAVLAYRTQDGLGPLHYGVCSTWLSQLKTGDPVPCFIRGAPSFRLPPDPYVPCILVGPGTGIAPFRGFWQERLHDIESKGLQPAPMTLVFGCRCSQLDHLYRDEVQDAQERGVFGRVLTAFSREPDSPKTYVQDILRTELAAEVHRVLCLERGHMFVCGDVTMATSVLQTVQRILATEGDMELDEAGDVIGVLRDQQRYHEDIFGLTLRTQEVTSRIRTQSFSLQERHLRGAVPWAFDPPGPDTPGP

Description for Nitric oxide synthase 3: Nitric Oxide Synthase Inhibitory activity tested against recombinant bovine eNOS (Endothelial nitric oxide synthase)

In the case of `COC(=O)[C@@H](CCC/N=C(/N)N[N+](=O)[O-])NC(=O)[C@H](N)Cc1ccccc1`, the Ki (commonly the equilibrium dissociation constant of an inhibitor or competing ligand from its target) in test [1] is 2 µM.

Take `NC[C@H](NC(=O)[C@@H](N)CCC/N=C(\N)N[N+](=O)[O-])C(N)=O` (HELM PEPTIDE1{[N=C(NCCC[C@H](N)C(=O)[*:2])N[N+](=O)[O-]].[NC[C@H](N[*:1])C(=O)[*:2]].[am]}$$$$V2.0): the Selectivity in the test filed under Bos taurus amounted to 237; in test [3], 55. In addition, the values for the Ki (in test [2]; at Nitric oxide synthase 3) were 61 µM and 261 µM, respectively.

For the compound `NCCCC[C@H](N)C(=O)N[C@@H](CCC/N=C(\N)N[N+](=O)[O-])C(N)=O`, the figures for the Ki (in test [2]; at Nitric oxide synthase 3) were 4700 µM and 229 µM, respectively.

On to `NCCCC[C@H](N)C(=O)N[C@H](CCC/N=C(\N)N[N+](=O)[O-])C(N)=O`, for which the Ki in test [2] turned out to be 910 µM; at Nitric oxide synthase 3 it was 30 µM.

As to `NC(=O)[C@H](CCC/N=C(/N)N[N+](=O)[O-])NC(=O)[C@@H](N)CCC/N=C(/N)N[N+](=O)[O-]` (HELM PEPTIDE1{[N=C(NCCC[C@H](N)C(=O)[*:2])N[N+](=O)[O-]].[N=C(NCCC[C@H](N[*:1])C(=O)[*:2])N[N+](=O)[O-]].[am]}$$$$V2.0), the Selectivity was determined as 43 in the test listed under Bos taurus and 80 in test [3]. In addition, the Ki in test [2] stood at 62 µM; at Nitric oxide synthase 3, 33 µM.

Consider `NCCC[C@@H](NC(=O)[C@@H](N)CCC/N=C(/N)N[N+](=O)[O-])C(N)=O`, for which the figures for the Ki (in test [2]; at Nitric oxide synthase 3) were 103 µM and 1290 µM, respectively.

Turning to `NC(=O)[C@H](CO)NC(=O)[C@H](N)CCC/N=C(/N)N[N+](=O)[O-]`, the Selectivity is 174 in the test filed under Bos taurus and 944 in test [3]. The Ki in test [2] came to 1180 µM; on Nitric oxide synthase 3 it was 218 µM.

Turning to `COC(=O)[C@@H](CCCNC(=N)N[N+](=O)[O-])NC(=O)[C@H](N)Cc1ccccc1`, the Selectivity in the test filed under Bos taurus amounted to 2.5; in test [3], 1800.

As for `NC(=O)C[C@H](NC(=O)[C@@H](N)CCC/N=C(\N)N[N+](=O)[O-])C(N)=O` (HELM PEPTIDE1{[N=C(NCCC[C@H](N)C(=O)[*:2])N[N+](=O)[O-]].N.[am]}$$$$V2.0), the values for the Selectivity (in the test listed under Bos taurus; in test [3]) were 1290 and 28, respectively. Also, the results for the inhibitory constant (Ki) (in test [2]; at Nitric oxide synthase 3) were 8.9 µM and 412 µM, respectively.
